Source: publication PMC7698453, “4-Benzyloxylonchocarpin and Muracatanes A-C from Ranunculus muricatus L. and Their Biological Effects” (Biomolecules, 2020)
Counter-ions that a name gives are not always drawn. Like-named read-outs stand apart in the source and are kept apart here.

What was measured:
BChE (from equine serum) = target: T1, BChE (from equine serum) (Equus caballus, UniProt P81908); assay: Cholinesterase assay (Ellman's method), BChE; type: biochemical; conditions: for inhibition at 10 µM: read-out: BChE % Inhibition
T1 construct: BChE (from equine serum); purchased Merck (Darmstadt, Germany); host or cells: equine serum
Protocol: (§1) A solution of tris(hydroxymethyl)-aminomethane (606 mg) in twice-distilled water (100 mL) was adjusted to a pH of 8.0 ± 0.1 with HCl to get a 50 mM Tris-HCl buffer solution. The AChE solution holding 2.005 U/mL was prepared by dissolving the enzyme (271 U/mg, 0.037 mg) in freshly prepared buffer pH 8.0 (5 mL) comprising extra NaN3 (0.98 mg), and for the BChE solution with the concentration of 2.040 U/mL: the enzyme (7.54 U/mg, 1.353 mg) was dissolved in freshly prepared buffer pH 8.0 (5 mL) comprising NaN3 (0.98 mg). The DTNB solution with the concentration of 3 mM was prepared by dissolving DTNB (23.8 mg) in buffer pH 8.0 (20 mL) and this was followed by the addition of MgCl2 (38.0 mg) and NaCl (116.8 mg). The ATChI solution with the concentration of 15 mM was prepared by dissolving ATChI (43.4 mg) in twice-distilled water (10 mL). Furthermore, all solutions were stored in Eppendorf tubes in the refrigerator or freezer. […] The final concentrations for the enzymatic assays were obtained by diluting the stock solution with twice-distilled water.
(§2) A mixture of the tested natural product solutions (25 µL, 3 different concentrations and one blank), DTNB solution (125 μL) and enzyme solution (25 μL, AChE or BChE) was incubated at 30 °C for 20 min in 96-well microplates followed by the addition of the substrate (25 μL, at 4 different concentrations). The final substrate concentrations were as follows: [ATChI] = 0.9375 mM, 0.625 mM, […], and 0.1875 mM. Moreover, the absorbance (λ = 415 nm) was measured at 30 °C for 30 min at 1 min intervals. […] Ki and Ki’ were deduced from Lineweaver–Burk, Dixon, and Cornish–Bowden plots as well as the mode of inhibtion. The relative inhibition was deduced as the quotient of the slopes (compound divided by blank) of the linear ranges. The concentration of each compound was 10 µM while the concentration was ATChI = 0.625 mM.

[1] = Sulforhodamine B cytotoxicity assay, FaDu; type: cell-based; conditions: human, FaDu pharynx carcinoma cells; SRB assay, tested 1-30 µM
Protocol: (§3) The cytotoxicity of the natural products was screened by using the sulforhodamine-B (Kiton Red S, ABCR, Karlsruhe, Germany) in micro culture colorimetric assay using 96-well plates with the seeding of the cells on day 0 applying appropriate cell densities to prevent confluence of the cells during the period of the experiment. On day 1, the cells were treated with six different concentrations (1, 3, 7, 12, 20 and 30 µM); thereby, the final concentration of DMSO was always ≤ 0.5%, generally regarded as non-toxic to the cells. On day 4, the supernatant medium was discarded; the cells were fixed with 10 % trichloroacetic acid. After another day at 4 °C, the cells were washed in a strip washer and dyed with the SRB solution (100 µL, 0.4% in 1% acetic acid) for about 20 min and this was followed by washing of the plates (four times, 1% acetic acid) and air-drying overnight. Furthermore, tris base solution (200 µL, 10 mM) was added to each well and absorbance was measured at λ = 570 nm employing a reader (96 wells, Tecan Spectra, Crailsheim, Germany).

[2] = Sulforhodamine B cytotoxicity assay, MCF7; type: cell-based; conditions: human, MCF7 breast cancer cells; SRB assay, tested 1-30 µM
Protocol: as §3

[3] = target: T2, AChE (from Electrophorus electricus) (Electrophorus electricus, UniProt O42275); assay: biochemical; type: biochemical; conditions: for inhibition at 10 µM: at concentration of 10 µM, ATChI 0.625 mM
T2 construct: purchased Merck (Darmstadt, Germany)
Protocol: as §1, §2

[4] = Sulforhodamine B cytotoxicity assay, SW1736; type: cell-based; conditions: human, SW1736 thyroid carcinoma cells; SRB assay, tested 1-30 µM
Protocol: as §3

[5] = Sulforhodamine B cytotoxicity assay, HT29; type: cell-based; conditions: human, HT29 colorectal adenocarcinoma cells; SRB assay, tested 1-30 µM
Protocol: as §3

[6] = Sulforhodamine B cytotoxicity assay, A2780; type: cell-based; conditions: human, A2780 ovarian carcinoma cells; SRB assay, tested 1-30 µM
Protocol: as §3

[7] = target: T3, α-Glucosidase type I (EC 3.2.1.20 from Saccharomyces cerevisiae) (Saccharomyces cerevisiae, UniProt P53341); assay: α-Glucosidase assay (p-NPG substrate); type: biochemical; conditions: for inhibition at 10 µM: at concentration of 10 µM
T3 construct: purchased Sigma-Aldrich (St. Louis, MO, USA)
Protocol: The α-glucosidase assay was applied to pure natural product 3 according to the protocol described by Schmidt and co-workers. In short, the assays were performed in 96-well microplates using a Multiskan FC microplate photometer (Thermo Fisher Scientific, Waltham, MA, USA) controlled by SkanIt 2.5.1 software (Thermo Fisher Scientific, Waltham, MA, USA) with final volumes of 200 µL in each well. A phosphate buffer (100 mM) was prepared by dissolving 2.65 g sodium dihydrogen phosphate dihydrate, 4.70 g disodium hydrogen phosphate, and 0.10 g sodium azide in 500 mL Milli-Q water and adjusting the pH to 7.5. […] The microplate was shaken for 2 min, and incubated for 10 min at 28 °C. Then, 20 µL of p-NPG substrate (10 mM, 60.2 mg in 20 mL buffer) was added to each well to initiate the reaction. The enzyme activity (expressed as cleavage rate ΔAU/s) was determined by measuring the absorbance at 405 nm every 30 s for 35 min, and percentage inhibition was calculated according to the equation: Percent inhibition=Slope(blank)−Slope(sample)/Slope(blank)× 100% where slopeblank is the enzyme activity of the wells containing buffer, enzyme, and substrate and slopesample is the enzyme activity in the wells containing buffer, enzyme, substrate, and sample.

[8] = Ki' (mixed-mode inhibition), from Lineweaver–Burk, Dixon and Cornish–Bowden plots

T1 sequence (P81908 whole entry): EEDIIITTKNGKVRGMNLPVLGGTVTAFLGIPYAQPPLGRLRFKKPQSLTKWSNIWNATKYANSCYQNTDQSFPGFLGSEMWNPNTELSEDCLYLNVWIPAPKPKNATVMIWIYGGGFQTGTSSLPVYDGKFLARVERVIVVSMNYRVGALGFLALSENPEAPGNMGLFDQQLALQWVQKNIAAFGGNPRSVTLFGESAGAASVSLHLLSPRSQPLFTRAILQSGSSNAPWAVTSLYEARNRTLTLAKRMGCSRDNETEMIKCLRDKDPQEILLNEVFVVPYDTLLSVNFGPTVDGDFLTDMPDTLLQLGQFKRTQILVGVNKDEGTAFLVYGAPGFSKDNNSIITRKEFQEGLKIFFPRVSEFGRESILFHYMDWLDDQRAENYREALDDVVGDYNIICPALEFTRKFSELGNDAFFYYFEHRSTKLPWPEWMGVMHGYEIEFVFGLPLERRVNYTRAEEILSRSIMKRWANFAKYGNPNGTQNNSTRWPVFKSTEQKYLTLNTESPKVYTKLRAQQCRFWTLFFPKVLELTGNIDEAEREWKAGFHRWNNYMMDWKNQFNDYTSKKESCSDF
T3 sequence (P53341 whole entry): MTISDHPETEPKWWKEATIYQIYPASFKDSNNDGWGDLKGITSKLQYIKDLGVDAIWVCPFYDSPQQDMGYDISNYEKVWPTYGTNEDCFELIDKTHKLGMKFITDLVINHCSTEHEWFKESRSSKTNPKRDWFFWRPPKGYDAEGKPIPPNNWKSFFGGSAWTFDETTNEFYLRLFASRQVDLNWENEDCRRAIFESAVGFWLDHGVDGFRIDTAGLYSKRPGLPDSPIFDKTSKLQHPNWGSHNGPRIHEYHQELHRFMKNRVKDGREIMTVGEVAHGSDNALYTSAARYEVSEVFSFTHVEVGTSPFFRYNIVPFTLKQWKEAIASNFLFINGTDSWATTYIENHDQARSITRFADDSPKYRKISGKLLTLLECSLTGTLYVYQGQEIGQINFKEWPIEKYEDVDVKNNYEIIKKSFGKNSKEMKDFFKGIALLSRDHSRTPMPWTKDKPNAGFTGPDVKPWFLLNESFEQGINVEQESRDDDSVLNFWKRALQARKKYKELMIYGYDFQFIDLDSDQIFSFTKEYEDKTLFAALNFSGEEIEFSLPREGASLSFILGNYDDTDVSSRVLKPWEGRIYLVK
T2 sequence (O42275 24-633): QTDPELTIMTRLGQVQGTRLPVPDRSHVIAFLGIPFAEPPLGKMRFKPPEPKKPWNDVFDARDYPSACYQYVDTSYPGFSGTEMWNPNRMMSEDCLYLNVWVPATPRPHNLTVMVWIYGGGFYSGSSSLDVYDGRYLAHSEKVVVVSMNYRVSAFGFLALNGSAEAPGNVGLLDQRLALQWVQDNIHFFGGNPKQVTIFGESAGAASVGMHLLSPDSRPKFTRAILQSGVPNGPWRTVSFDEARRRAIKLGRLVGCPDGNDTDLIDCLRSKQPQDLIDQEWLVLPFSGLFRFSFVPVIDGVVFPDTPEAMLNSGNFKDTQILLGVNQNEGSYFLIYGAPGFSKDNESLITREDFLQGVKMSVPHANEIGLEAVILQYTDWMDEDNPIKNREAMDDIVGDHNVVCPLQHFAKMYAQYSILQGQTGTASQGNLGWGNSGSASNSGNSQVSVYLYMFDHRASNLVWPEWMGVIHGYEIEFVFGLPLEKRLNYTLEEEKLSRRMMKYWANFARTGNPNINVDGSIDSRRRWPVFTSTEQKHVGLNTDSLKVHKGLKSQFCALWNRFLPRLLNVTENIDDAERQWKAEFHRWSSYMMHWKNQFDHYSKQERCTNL

SMILES	inhibition at 10 µM (BChE (from equine serum); at concentration of 10 µM) [%]	IC50 at 3 days [1] [µM]	IC50 at 3 days [2] [µM]	mode of inhibition of AChE [3]	AChE Ki' [3, 8] [µM]	Ki [3, 8] [µM]	inhibition at 10 µM [3] [%]	Ki ([3]; from Lineweaver–Burk, Dixon and Cornish–Bowden plots) [µM]	IC50 at 3 days [4] [µM]	IC50 at 3 days [5] [µM]	IC50 at 3 days [6] [µM]	inhibition at 10 µM [7] [%]	IC50 [7] [µM]	inhibition at 10 µM (BChE (from equine serum)) [%]	mode of inhibition of BChE (BChE (from equine serum); results not shown)
CC1(C)C=Cc2c(ccc(C(=O)/C=C/c3ccc(OCc4ccccc4)cc3)c2O)O1 [Compound 1, (E)-3-(4-(benzyloxy)phenyl)-1-(5-hydroxy-2,2-dimethyl-2H-chromen-6-yl)prop-2-en-1-one]	27.3	> 30	> 30	mixed-mode type inhibitor	3.54 ± 0.24	3.54	97.4	5.39 ± 0.51	> 30	> 30	> 30				
COC(=O)C(Cc1ccc2c(c1OC)C(=O)c1cccc(OC)c1C2=O)C(=O)OC [Compound 2, dimethyl 2-((1,5-dimethoxy-9,10-dioxo-9,10-dihydroanthracen-2-yl)methyl)malonate]		> 30	> 30						> 30	> 30	> 30	13.4			
O=C1c2ccc(O)cc2C(=O)c2c(O)ccc(O)c21 [Compound 3, 1,4,6-trihydroxyanthracene-9,10-dione]		> 30	> 30						> 30	> 30	> 30	80.4	164 ± 83		
COc1ccc(/C=C/C(=O)c2ccc3c(c2O)C=CC(C)(C)O3)cc1 [Compound 5, 4-methoxylonchocarpin]	8.7	> 30	23.7				49.9		26.2	20.2	25.4	36.1			
COc1ccc2c3c1O[C@H]1C[C@@H](O)C=C[C@@]31CCN(C)C2 [GH, Galantamine hydrobromide, reference compound]														54.8	competitive inhibitor
